Tests used:
NPM-ALK-BaF3 = molecular target: T1, NPM-ALK-BaF3 (Homo sapiens, UniProt Q9UM73); test: Growth inhibition of BaF3 cells stably transfected with kinase NPM-ALK (MTS); type: cell-based; details: compound concentration 3.3 μM, read-out: cell growth inhibition rate, NPM-ALK
T1 construct: NPM (nuclear phosphoprotein / nucleophosmin, NPM1, P06748) fusion partner; expressed in transfected cells; host or cells: BaF3; the other entry of the earlier key: NPM1 (P06748, Nucleophosmin)
Protocol: (§1) The specific test method is given as follows:
(§2) 2) Reagent: MTS reaction solution (containing 2 mg/mL of MTS [3-(4,5-dimethylthiazol-2-yl)-5-(3-carboxymethoxyphenyl)-2-(4-sulfophenyl)-2H-tetra zolium, inner Salt]; 100 µg/mL PES ([…])).

EML4-ALK-BaF3 = molecular target: T2, EML4-ALK-BaF3 (Homo sapiens, UniProt Q9UM73); test: Growth inhibition of BaF3 cells stably transfected with kinase EML4-ALK (MTS); type: cell-based; details: compound concentration 3.3 μM, read-out: cell growth inhibition rate, EML4-ALK
T2 construct: EML4 (echinoderm microtubule associated protein like 4, Q9HC35) fusion partner; expressed in transfected cells; host or cells: BaF3; the other entry of the earlier key: EML4 (Q9HC35, Echinoderm microtubule-associated protein-like 4)
T2 sequence (Q9UM73 1058-1620 limits assumed): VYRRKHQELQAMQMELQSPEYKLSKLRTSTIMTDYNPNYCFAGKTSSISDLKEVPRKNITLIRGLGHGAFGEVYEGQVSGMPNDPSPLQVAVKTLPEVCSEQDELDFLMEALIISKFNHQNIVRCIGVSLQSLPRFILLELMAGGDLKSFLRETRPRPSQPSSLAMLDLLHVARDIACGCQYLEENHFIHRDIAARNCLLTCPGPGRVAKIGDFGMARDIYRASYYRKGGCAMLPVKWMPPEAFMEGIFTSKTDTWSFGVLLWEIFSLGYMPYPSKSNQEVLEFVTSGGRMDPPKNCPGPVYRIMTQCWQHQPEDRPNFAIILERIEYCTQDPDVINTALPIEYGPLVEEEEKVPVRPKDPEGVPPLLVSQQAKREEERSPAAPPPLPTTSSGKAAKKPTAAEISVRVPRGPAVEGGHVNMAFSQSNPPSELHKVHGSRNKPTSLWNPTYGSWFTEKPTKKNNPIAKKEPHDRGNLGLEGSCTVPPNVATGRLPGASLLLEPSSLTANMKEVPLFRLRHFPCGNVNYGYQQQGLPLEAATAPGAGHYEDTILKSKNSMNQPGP
Protocol: as §1, §2

T1 sequence (Q9UM73 with tags, fused parts or gaps): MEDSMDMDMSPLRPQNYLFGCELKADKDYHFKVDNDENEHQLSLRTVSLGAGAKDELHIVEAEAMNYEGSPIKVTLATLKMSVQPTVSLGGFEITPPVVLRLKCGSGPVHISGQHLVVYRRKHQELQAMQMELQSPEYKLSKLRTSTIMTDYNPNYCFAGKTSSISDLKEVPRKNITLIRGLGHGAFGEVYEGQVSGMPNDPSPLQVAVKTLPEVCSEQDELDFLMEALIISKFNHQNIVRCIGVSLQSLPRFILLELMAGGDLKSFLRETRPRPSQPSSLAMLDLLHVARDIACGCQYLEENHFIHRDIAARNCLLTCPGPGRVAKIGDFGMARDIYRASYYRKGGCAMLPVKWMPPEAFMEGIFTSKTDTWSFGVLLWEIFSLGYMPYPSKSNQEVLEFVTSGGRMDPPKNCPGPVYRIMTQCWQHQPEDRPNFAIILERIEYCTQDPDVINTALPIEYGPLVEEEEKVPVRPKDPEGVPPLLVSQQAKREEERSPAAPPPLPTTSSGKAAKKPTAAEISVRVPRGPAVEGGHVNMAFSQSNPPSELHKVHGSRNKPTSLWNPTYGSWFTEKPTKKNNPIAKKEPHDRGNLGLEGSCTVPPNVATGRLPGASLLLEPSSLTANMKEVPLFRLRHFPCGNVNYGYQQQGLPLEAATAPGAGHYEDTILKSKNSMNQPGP

SMILES	inhibition at 3.3 µM (NPM-ALK-BaF3) [%]	inhibition at 3.3 µM (EML4-ALK-BaF3) [%]
COc1cc2c(cc1Nc1nc(Nc3ccccc3S(C)(=O)=O)c3sccc3n1)N(C(=O)CN(C)C)CC2 [IA-1]	87.6	94.9
COc1cc(N2CCC(N3CCN(C)CC3)CC2)ccc1Nc1nc(Nc2ccccc2S(C)(=O)=O)c2sccc2n1 [IA-2]	87.6	98.9
COc1cc(N2CCC(N3CCCC3)CC2)ccc1Nc1nc(Nc2ccccc2S(C)(=O)=O)c2sccc2n1 [IA-3]	92.7	99.8
COc1cc(N2CCN(C)CC2)ccc1Nc1nc(Nc2ccccc2S(C)(=O)=O)c2sccc2n1 [IA-4]	86	99.6
COc1cc(N2CCC(N3CCN(C)CC3)CC2)ccc1Nc1nc(Nc2ccccc2S(=O)(=O)C(C)C)c2sccc2n1 [IB-2]	94.4	82.9
COC(=O)c1cccc(Nc2nc(Nc3ccc(N4CCC(N5CCCC5)CC4)cc3OC)nc3ccsc23)c1 [ID-4]	90.7	98.5
COC(=O)c1cccc(Nc2nc(Nc3cc(C)c(C4CCN(C)CC4)cc3OC(C)C)nc3ccsc23)c1 [ID-5]	93.9	> 99
COC(=O)c1cccc(Nc2nc(Nc3cc(C)c(C4CCN(C)CC4)cc3OC)nc3ccsc23)c1 [ID-6]	-24.1	99.9
COC(=O)c1ccccc1Nc1nc(Nc2ccc(N3CCC(N4CCN(C)CC4)CC3)cc2OC)nc2ccsc12 [IE-1]	69.5	97
COC(=O)c1ccccc1Nc1nc(Nc2ccc(N3CCC(O)CC3)cc2)nc2ccsc12 [IE-2]	50.5	98.2
COC(=O)c1ccccc1Nc1nc(Nc2ccc(N3CCN(C)CC3)cc2OC)nc2ccsc12 [IE-3]	85.5	96.7
COC(=O)c1ccccc1Nc1nc(Nc2ccc(N3CCC(N4CCN(C)CC4)CC3)cc2)nc2ccsc12 [IE-4]	93.6	96.7
COC(=O)c1ccccc1Nc1nc(Nc2ccc(N3CCC(N4CCCC4)CC3)cc2OC)nc2ccsc12 [IE-5]	87.6	99
COc1cc(N2CCC(N3CCN(C)CC3)CC2)ccc1Nc1nc(Nc2ccccc2P(=O)(C(C)C)C(C)C)c2sccc2n1 [IR-4]		98.4
COc1cc(N2CCC(N(C)C)CC2)ccc1Nc1nc(Nc2ccccc2P(=O)(C(C)C)C(C)C)c2sccc2n1 [IR-5]		98.3
CC(C)P(=O)(c1ccccc1Nc1nc(Nc2ccc(N3CCN(C)CC3)cc2)nc2ccsc12)C(C)C [IR-6]		98.3
CCP(=O)(CC)c1ccccc1Nc1nc(Nc2cc3c(cc2OC)CCN3C(=O)CN(C)C)nc2ccsc12 [IS-1]		98.7
CCP(=O)(CC)c1ccccc1Nc1nc(Nc2ccc(N3CCC(N4CCCC4)CC3)cc2OC)nc2ccsc12 [IS-2]		98.2
CCP(=O)(CC)c1ccccc1Nc1nc(Nc2ccc(N3CCC(N4CCN(C)CC4)CC3)cc2OC)nc2ccsc12 [IS-3]		101
CCP(=O)(CC)c1ccccc1Nc1nc(Nc2ccc(N3CCN(C)CC3)cc2OC)nc2ccsc12 [IS-4]		103
CCP(=O)(CC)c1ccccc1Nc1nc(Nc2ccc(N3CCN(C)CC3)cc2)nc2ccsc12 [IS-5]		103
CCP(=O)(CC)c1ccccc1Nc1nc(Nc2ccc(N3CCC(N(C)C)CC3)cc2OC)nc2ccsc12 [IS-6]		99.5
COc1cc2c(cc1Nc1nc(OCc3ccccc3S(=O)(=O)C(C)C)c3sccc3n1)N(C(=O)CN(C)C)CC2 [IT-1]		99.8
COc1cc(N2CCC(N3CCN(C)CC3)CC2)ccc1Nc1nc(OCc2ccccc2S(=O)(=O)C(C)C)c2sccc2n1 [IT-3]		87.8
CC(C)S(=O)(=O)c1ccccc1COc1nc(Nc2ccc(N3CCOCC3)cc2)nc2ccsc12 [IT-4]		100
COc1cc(N2CCC(N(C)C)CC2)ccc1Nc1nc(OCc2ccccc2S(=O)(=O)C(C)C)c2sccc2n1 [IT-5]		101

Reference: patent publication US11078213B2, “Thienopyrimidine compound, preparation method thereof, pharmaceutical composition and application thereof” (HONGYUN BIOTECH CO., LTD., priority 2016, dated 2021)
